Key:
RASFCs = assay: Synovial fibroblast assay, IL-6 ELISA; type: cell-based, human; details: RASFCs treated with TNF (10 ng/ml), 200 μm compound, supernatants at 72 hr, n=3, DMSO vehicle = 100%
Method: Synovial Fibroblast Assay
To assess the compounds in human rheumatoid arthritis samples the following protocol was employed:
Isolation of Primary Fibroblasts: RA synovial biopsies were digested with 1 mg/ml collagenase type 1 (Worthington Biochemical, Freehold, NJ, USA) in RPMI-1640 (Gibco-BRL, Paisley, UK) for 4 hr at 37° C. in humidified air with 5% CO2. Dissociated cells were grown to confluence in RPMI 1640, 10% FCS (Gibco-BRL), 10 ml of 1 mmol/l HEPES (Gibco-BRL), penicillin (100 units/ml; Bioscience), streptomycin (100 units/ml; Bioscience) and fungizone (0.25 μg/ml; Bioscience) before passaging. Cells were used between passages 3-8.
Compounds (200 μm) were tested on n=3 RASFCs
RASFCs were grown to 80% confluency in 48 well plates. RASFCs were treated with TNF (10 ng/ml) in the presence of 200 μm of each compound. Media was replaced after 24 h and fresh media and compound was added. Cell supernatants were collected at 72 hr time point. DMSO treated cells were used as a vehicle control (Red dotted line represents DMSO control).
IL-6 ELISA: Levels of pro-inflammatory cytokine IL6 were measured in cultured RASFC supernatants by specific ELISA (R&D systems, UK) according to manufacturer's conditions.
This assay measures the production of IL-6 as an indication of immune system activation: the lower the value the better from the point of view of alleviating RA symptoms. […]

[1] = biological target: T1, queuine-tRNA ribosyltransferase enzyme complex (hQTRT1:hQTRT2) (Homo sapiens, UniProt Q9BXR0); assay: [8-14C] guanine displacement assay (TGT substrate); type: biochemical; details: 50 μM compound, 30 mins at 37° C., ≥5% is considered a positive substrate for TGT
T1 construct: polyhistidine (N); made in house; host or cells: E. coli BL21(DE3) tgt::Kmr
T1 sequence (Q9BXR0 whole entry): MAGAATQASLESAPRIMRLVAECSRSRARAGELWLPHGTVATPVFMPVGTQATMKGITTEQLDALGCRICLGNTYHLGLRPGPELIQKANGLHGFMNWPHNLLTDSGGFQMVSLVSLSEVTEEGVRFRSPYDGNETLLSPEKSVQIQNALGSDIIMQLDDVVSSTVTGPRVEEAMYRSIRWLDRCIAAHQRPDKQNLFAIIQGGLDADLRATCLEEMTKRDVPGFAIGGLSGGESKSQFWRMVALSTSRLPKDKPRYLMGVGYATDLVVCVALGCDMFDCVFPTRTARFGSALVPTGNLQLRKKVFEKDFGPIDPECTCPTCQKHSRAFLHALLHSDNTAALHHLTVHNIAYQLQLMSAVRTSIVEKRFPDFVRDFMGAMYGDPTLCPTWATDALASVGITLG
T1 sequence (Q9H974 whole entry partner): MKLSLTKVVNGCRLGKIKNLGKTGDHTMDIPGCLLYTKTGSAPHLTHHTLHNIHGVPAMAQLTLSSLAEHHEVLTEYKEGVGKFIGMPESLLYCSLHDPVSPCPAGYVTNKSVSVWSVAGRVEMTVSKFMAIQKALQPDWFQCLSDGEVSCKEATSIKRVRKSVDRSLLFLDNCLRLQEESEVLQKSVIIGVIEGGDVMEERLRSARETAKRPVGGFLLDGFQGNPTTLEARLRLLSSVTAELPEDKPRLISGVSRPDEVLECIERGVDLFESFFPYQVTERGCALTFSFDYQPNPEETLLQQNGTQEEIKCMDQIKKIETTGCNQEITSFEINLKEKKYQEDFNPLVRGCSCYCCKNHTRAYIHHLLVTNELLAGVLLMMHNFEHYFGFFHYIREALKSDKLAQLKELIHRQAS
Method: Compounds capable of acting as a queuine-tRNA ribosyltransferase enzyme complex substrate may be identified by use of a displacement assay as described below:
Production of [8-^14C] Guanine Labeled tRNA (tRNA*)
Before adding the 8-[^14C] guanine solution to the reaction the solution was neutralised with an equal volume (vol/vol) 0.01 M NaOH, as the [8-^14C] Guanine is supplied in 0.01 M HCl aqueous solution. In vitro synthesised human tyrosyl tRNA was prepared by T7 transcription in ultrapure nuclease-free water as described previously (Alqasem et al., 2020). Recombinant human QTRT1 enzyme containing an N-terminal polyhistidine tag and human QTRT2 containing a C-terminal TEV-Strep-Tag®II tag were produced in BL21(DE3) tgt::Kmr cells as described previously (Alqasem et al., 2020).
The reaction was incubated for 1 hour at 37° C. […] The tRNA* pellet was resuspended in 30 μL nuclease-free water and the concentration measured spectrophotometrically at A260. […]
After 30 mins the reactions were quenched by mixing with 2.5 ml ice-cold 10% trichloroacetic acid (TCA) and placed on ice for one hour to precipitate the tRNA. […] The vacuum manifold was disassembled, the filters recovered and dried again at room temperature before being placed in scintillation vials containing 10 ml of Ecoscint A and radioactivity levels measured by scintillation counting. […]

Row | displacement of the [14C] guanine [1] | Compound | Level of IL6 expression compared to vehicle (RASFCs)
1 | – | Nc1nc2[nH]cc(CNOCCc3ccccc3)c2c(=O)[nH]1 [Example 1, 2-Amino-5-((phenethoxyamino)methyl)-3,7-dihydro-4H-pyrrolo[2,3-d]pyrimidin-4-one] | Reduction to 17%
2 | – | CO/N=C/c1c[nH]c2nc(N)[nH]c(=O)c12 [Example 2, 2-Amino-4-oxo-4,7-dihydro-3H-pyrrolo[2,3-d]pyrimidine-5-carbaldehyde O-methyl oxime] | Reduction to 15%
3 | – | Nc1nc2[nH]cc(/C=N/O)c2c(=O)[nH]1 [Example 4, 2-Amino-4-oxo-4,7-dihydro-3H-pyrrolo[2,3-d]pyrimidine-5-carbaldehyde oxime] | Reduction to 15%
4 | – | C[C@@H]1CCN(C(=O)CC#N)C[C@@H]1N(C)c1ncnc2[nH]ccc12 [Tofacitinib, reference compound] | Reduction to 58%
5 | > 98% | Nc1nc2[nH]cc(CN[C@H]3C=C[C@H](O)[C@@H]3O)c2c(=O)[nH]1 [queuine base, queuine] | –

From patent publication US12643901B2, “Compounds” (The Provost, Fellows, Foundation Scholars, and the other …, priority 2020, dated 2026)
